From patent US12123010B2, “Plants having increased tolerance to herbicides” (BASF SE, priority 2017, dated 2024)
pIC50: −log10 of the molar value. Values joined by “and” are separate entries in the source; they are usually repeats but may differ in a detail not shown here. Equal values may be shown once. Read-outs that look alike come from different tables or passages of the source.

Key:
[1] = biological target: Variant PPO Enzyme L397Q (Amaranthus PPO2) (Amaranthus tuberculatus, UniProt Q0NZW9, L397Q); format: biochemical
[2] = biological target: Variant PPO Enzyme L397Q, F420M (Amaranthus PPO2) (Amaranthus tuberculatus, UniProt Q0NZW9, F420M/L397Q); format: biochemical
[3] = biological target: Variant PPO Enzyme R128A, F420M (Amaranthus PPO2) (Amaranthus tuberculatus, UniProt Q0NZW9, F420M/R128A); format: biochemical
[4] = biological target: Variant PPO Enzyme L397Q, F420V (Amaranthus PPO2) (Amaranthus tuberculatus, UniProt Q0NZW9, F420V/L397Q); format: biochemical
[5] = biological target: Variant PPO Enzyme F420M (Amaranthus PPO2) (Amaranthus tuberculatus, UniProt Q0NZW9, F420M); experiment: biochemical; format: biochemical
[6] = biological target: Variant PPO Enzyme R128A, F420V (Amaranthus PPO2) (Amaranthus tuberculatus, UniProt Q0NZW9, F420V/R128A); experiment: biochemical; format: biochemical
[7] = biological target: Variant PPO Enzyme F420V (Amaranthus PPO2) (Amaranthus tuberculatus, UniProt Q0NZW9, F420V); format: biochemical
[8] = test system: Transgenic T2 Arabidopsis plants harboring PPO inhibitor tolerance trait; experiment: Lab based germination assay in 48-well plates (Table i); format: in vivo, Arabidopsis thaliana
[9] = biological target: Variant PPO Enzyme L397E, F420M (Amaranthus PPO2) (Amaranthus tuberculatus, UniProt Q0NZW9, F420M/L397E); format: biochemical
[10] = read-out: Variant PPO Enzyme IC50

Sequence of Variant PPO Enzyme F420M (Amaranthus PPO2) (Q0NZW9 1-534 F420M): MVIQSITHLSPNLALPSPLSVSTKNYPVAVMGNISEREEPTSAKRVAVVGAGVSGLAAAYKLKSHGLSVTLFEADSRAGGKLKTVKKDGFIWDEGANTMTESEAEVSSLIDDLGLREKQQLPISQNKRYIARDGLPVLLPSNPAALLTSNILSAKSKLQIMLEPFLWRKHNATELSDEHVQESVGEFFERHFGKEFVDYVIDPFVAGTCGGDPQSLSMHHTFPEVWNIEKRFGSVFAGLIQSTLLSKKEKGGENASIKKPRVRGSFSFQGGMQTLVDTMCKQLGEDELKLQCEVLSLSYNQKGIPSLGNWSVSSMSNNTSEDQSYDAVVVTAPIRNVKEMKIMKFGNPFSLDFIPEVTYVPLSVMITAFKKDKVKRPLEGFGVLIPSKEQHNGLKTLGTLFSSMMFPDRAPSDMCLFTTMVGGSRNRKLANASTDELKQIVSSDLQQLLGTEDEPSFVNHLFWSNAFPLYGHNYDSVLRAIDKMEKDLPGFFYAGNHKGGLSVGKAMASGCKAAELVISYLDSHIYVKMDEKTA
Sequence of Variant PPO Enzyme R128A, F420M (Amaranthus PPO2) (Q0NZW9 1-534 F420M/R128A): as the sequence (Q0NZW9 1-534 F420M) above, with R128A counted along it
Sequence of Variant PPO Enzyme R128A, F420V (Amaranthus PPO2) (Q0NZW9 1-534 F420V/R128A): as the sequence (Q0NZW9 1-534 F420M) above, with R128A, M420V counted along it
Sequence of Variant PPO Enzyme L397Q (Amaranthus PPO2) (Q0NZW9 1-534 L397Q): as the sequence (Q0NZW9 1-534 F420M) above, with L397Q, M420F counted along it
Sequence of Variant PPO Enzyme L397Q, F420V (Amaranthus PPO2) (Q0NZW9 1-534 F420V/L397Q): as the sequence (Q0NZW9 1-534 F420M) above, with L397Q, M420V counted along it
Sequence of Variant PPO Enzyme L397Q, F420M (Amaranthus PPO2) (Q0NZW9 1-534 F420M/L397Q): as the sequence (Q0NZW9 1-534 F420M) above, with L397Q counted along it
Sequence of Variant PPO Enzyme F420V (Amaranthus PPO2) (Q0NZW9 1-534 F420V): as the sequence (Q0NZW9 1-534 F420M) above, with M420V counted along it
Sequence of Variant PPO Enzyme L397E, F420M (Amaranthus PPO2) (Q0NZW9 1-534 F420M/L397E): as the sequence (Q0NZW9 1-534 F420M) above, with L397E counted along it

## CCOC(=O)COc1ncccc1Oc1cc(-n2c(=O)cc(C(F)(F)F)n(C)c2=O)c(F)cc1Cl [Uracilpyridine 1, ethyl 2-[[3-[2-chloro-4-fluoro-5-[3-methyl-2,6-dioxo-4-(trifluoromethyl)pyrimiclin-1-yl]phenoxy]-2-pyridyl]oxy]acetate]
[1]
  pIC50: 8.62
[2]
  pIC50: 6.37
[3]
  pIC50: 7.21
[4]
  pIC50: 5.65
[5]; [10]
  pIC50: 7.42 and 7.33
[6]; [10]
  pIC50: 6.79 and 6.55
[7]
  pIC50: 7.18
[8]; construct AMATU_PPO2_F420M (Amaranthus tuberculatus), in comparison to wild type plants
  Tolerance Factor: 110
[8]; construct AMATU_PPO2_L397D (Amaranthus tuberculatus), in comparison to wild type plants
  Tolerance Factor: 50
[8]; construct AMATU_PPO2_L397D_F420V (Amaranthus tuberculatus), in comparison to wild type plants
  Tolerance Factor: 41
[8]; construct AMATU_PPO2_R128A_F420M (Amaranthus tuberculatus), in comparison to wild type plants
  Tolerance Factor: 50
[8]; construct AMATU_PPO2_R128A_F420V (Amaranthus tuberculatus), in comparison to wild type plants
  Tolerance Factor: 75
[8]; construct AMATU_PPO2_WT (Amaranthus tuberculatus), growth inhibition in comparison to wild type plants
  Tolerance Factor: 6

## CCOC(=O)COc1ncccc1Oc1nc(-n2c(=O)cc(C(F)(F)F)n(C)c2=O)c(F)cc1Cl [Uracilpyridine 2, ethyl 2-[[3-[[3-chloro-5-fluoro-6-[3-methyl-2,6-dioxo-4-(trifluoromethyl)pyrimidin-1-yl]-2-pyridyl]oxy]-2-pyridyl]oxy]acetate]
[3]
  pIC50: 7.01
[5]
  pIC50: 7.34
[6]
  pIC50: 6.83

## CCOC(=O)COc1ccccc1Oc1nc(-n2c(=O)cc(C(F)(F)F)n(C)c2=O)c(F)cc1Cl [Uracilpyridine 4, ethyl 2-[2-[[3-chloro-5-fluoro-6-[3-methyl-2,6-dioxo-4-(trifluoromethyl)pyrimidin-1-yl]-2-pyridyl]oxy]phenoxy]acetate]
[3]
  pIC50: 7.16

## Cn1c(C(F)(F)F)cc(=O)n(-c2nc(Oc3ccccc3OCC(=O)NS(C)(=O)=O)c(Cl)cc2F)c1=O [Uracilpyridine 10, 2-[2-[[3-chloro-5-fluoro-6-[3-methyl-2,6-dioxo-4-(trifluoromethyl)pyrimidin-1-yl]-2-pyridyl]oxy]phenoxy]-N-methylsulfonyl-acetamide]
[9]
  pIC50: 5.19
[3]
  pIC50: 5.78

## CCOC(=O)COc1ccccc1Oc1nc(-n2c(=O)c(C)c(C(F)(F)F)n(C)c2=O)c(F)cc1Cl [Uracilpyridine 12, ethyl 2-[2-[[3-chloro-6-[3,5-dimethyl-2,6-dioxo-4-(trifluoromethyl)pyrimidin-1-yl]-5-fluoro-2-pyridyl]oxy]phenoxy]acetate]
[3]
  pIC50: 6.94

## C=CCOC(=O)COc1ncccc1Oc1nc(-n2c(=O)cc(C(F)(F)F)n(C)c2=O)c(F)cc1Cl [Uracilpyridine 13, allyl 2-[[3-[[3-chloro-5-fluoro-6-[3-methyl-2,6-dioxo-4-(trifluoromethyl)pyrimidin-1-yl]-2-pyridyl]oxy]-2-pyridyl]oxy]acetate]
[3]
  pIC50: 7.04

## C#CCOC(=O)COc1ncccc1Oc1nc(-n2c(=O)cc(C(F)(F)F)n(C)c2=O)c(F)cc1Cl [Uracilpyridine 14, prop-2-ynyl 2-[[3-[[3-chloro-5-fluoro-6-[3-methyl-2,6-dioxo-4-(trifluoromethyl)pyrimidin-1-yl]-2-pyridyl]oxy]-2-pyridyl]oxy]acetate]
[3]
  pIC50: 6.80

## Cn1c(C(F)(F)F)cc(=O)n(-c2nc(Oc3cccnc3OCC(=O)OCC3CC3)c(Cl)cc2F)c1=O [Uracilpyridine 15, cyclopropylmethyl 2-[[3-[[3-chloro-5-fluoro-6-[3-methyl-2,6-dioxo-4-(trifluoromethyl)pyrimidin-1-yl]-2-pyridyl]oxy]-2-pyridyl]oxy]acetate]
[3]
  pIC50: 7.37

## Cn1c(C(F)(F)F)cc(=O)n(-c2nc(Oc3cccnc3OCC(=O)OCC(F)F)c(Cl)cc2F)c1=O [Uracilpyridine 16, 2,2-difluoroethyl 2-[[3-[[3-chloro-5-fluoro-6-[3-methyl-2,6-dioxo-4-(trifluoromethyl)pyrimidin-1-yl]-2-pyridyl]oxy]-2-pyridyl]oxy]acetate]
[3]
  pIC50: 7.05

## CC(C)COC(=O)COc1ncccc1Oc1nc(-n2c(=O)cc(C(F)(F)F)n(C)c2=O)c(F)cc1Cl [Uracilpyridine 17, isobutyl 2-[[3-[[3-chloro-5-fluoro-6-[3-methyl-2,6-dioxo-4-(trifluoromethyl)pyrimidin-1-yl]-2-pyridyl]oxy]-2-pyridyl]oxy]acetate]
[3]
  pIC50: 7.34

## CCOC(=O)COC(=O)COc1ncccc1Oc1nc(-n2c(=O)cc(C(F)(F)F)n(C)c2=O)c(F)cc1Cl [Uracilpyridine 18, (2-ethoxy-2-oxo-ethyl) 2-[[3-[[3-chloro-5-fluoro-6-[3-methyl-2,6-dioxo-4-(trifluoromethyl)pyrimidin-1-yl]-2-pyridyl]oxy]-2-pyridyl]oxy]acetate]
[3]
  pIC50: 6.94

## COCCOC(=O)COc1ncccc1Oc1nc(-n2c(=O)cc(C(F)(F)F)n(C)c2=O)c(F)cc1Cl [Uracilpyridine 19, 2-methoxyethyl 2-[[3-[[3-chloro-5-fluoro-6-[3-methyl-2,6-dioxo-4-(trifluoromethyl)pyrimidin-1-yl]-2-pyridyl]oxy]-2-pyridyl]oxy]acetate]
[3]
  pIC50: 6.90
